Data: patent US8802597B2, “Herbicidal pyrimidines” (E I du Pont de Nemours and Company, priority 2003, dated 2014)

How the values were obtained:
Format in all cases: in vivo
[1] = system: corn (Zea mays); experiment: Test C pre/postemergence; conditions: for Corn plant response rating: scale 0 to 100 (0 no effect, 100 complete control)
Excerpt: (§1) Seeds or nutlets of plant species selected from bermudagrass (Cynodon dactylon), Surinam grass (Brachiaria decumbens), cocklebur (Xanthium strumarium), corn (Zea mays), crabgrass (Digitaria sanguinalis), woolly cupgrass (Eriochloa villosa), giant foxtail (Setaria faberii), goosegrass (Eleusine indica), johnsongrass (Sorghum halepense), kochia (Kochia scoparia), lambsquarters (Chenopodium album), morningglory (Ipomoea coccinea), eastern black nightshade (Solanum ptycanthum), yellow nutsedge (Cyperus esculentus), pigweed (Amaranthus retroflexus), common ragweed (Ambrosia elatior), soybean (Glycine max), common (oilseed) sunflower (Helianthus annuus), and velvetleaf (Abutilon theophrasti) were planted and treated preemergence with test chemicals formulated in a non-phytotoxic solvent mixture which included a surfactant.
(§2) At the same time, plants selected from these crop and weed species and also winter barley (Hordeum vulgare), blackgrass (Alopecurus myosuroides), canarygrass (Phalaris minor), chickweed (Stellaria media), downy brome (Bromus tectorum), green foxtail (Setaria viridis), Italian ryegrass (Lolium multiflorum), wheat (Triticum aestivum), wild oat (Avena fatua) and windgrass (Apera spica-venti) were treated with postemergence applications of some of the test chemicals formulated in the same manner. Plants ranged in height from 2 to 18 cm (1- to 4-leaf stage) for postemergence treatments. Plant species in the flooded paddy test consisted of rice (Oryza sativa), umbrella sedge (Cyperus difformis), duck salad (Heteranthera limosa) and barnyardgrass (Echinochloa crus-galli) grown to the 2-leaf stage for testing. Treated plants and controls were maintained in a greenhouse for 12 to 14 days, after which time all species were compared to controls and visually evaluated. Plant response ratings, summarized in Table C, are based on a scale of 0 to 100 where 0 is no effect and 100 is complete control. A dash (-) response means no test result.

[2] = system: goosegrass (Eleusine indica); experiment: Test C pre/postemergence; conditions: for Goosegrass plant response rating: scale 0 to 100 (0 no effect, 100 complete control)
Excerpt: as §1, §2

[3] = system: lambsquarters (Chenopodium album); experiment: Test C pre/postemergence; conditions: for Lambsquarters plant response rating: scale 0 to 100 (0 no effect, 100 complete control)
Excerpt: as §1, §2

[4] = system: soybean (Glycine max); experiment: Test C pre/postemergence; conditions: for Soybean plant response rating: scale 0 to 100 (0 no effect, 100 complete control)
Excerpt: as §1, §2

[5] = system: chickweed (Stellaria media); experiment: Test C postemergence; conditions: for Chickweed plant response rating: scale 0 to 100 (0 no effect, 100 complete control); for Plant response rating, Chickweed: scale 0 to 100
Summary of the method: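 We sprayed seeded pots preemergence and 2–18 cm seedlings postemergence with test chemicals in a non-phytotoxic solvent mixture including surfactant. Greenhouse plants were visually compared with untreated controls at 12 to 14 days and scored 0 (no effect) to 100 (complete control).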

[6] = Postemergence, 250 g ai/ha, scale 0 to 100
[7] = Postemergence, 500 g ai/ha, scale 0 to 100
[8] = Preemergence, 125 g ai/ha, scale 0 to 100
[9] = Preemergence, 250 g ai/ha, scale 0 to 100
[10] = Preemergence, 500 g ai/ha, scale 0 to 100
[11] = Preemergence, 62 g ai/ha, scale 0 to 100, 0 no effect, 100 complete control
[12] = Preemergence, 31 g ai/ha, scale 0 to 100, 0 no effect, 100 complete control
[13] = Preemergence, 16 g ai/ha, scale 0 to 100, 0 no effect, 100 complete control

CNN=Cc1nc(C2CC2)nc(N)c1Br [Compound 49]
95: Plant response rating, Lambsquarters [3, 6] | Plant response rating, Lambsquarters [3, 7] | Soybean plant response rating ([4]; Postemergence, 62 g ai/ha) | Soybean plant response rating ([4]; Postemergence, 125 g ai/ha) | Plant response rating, Soybean [4, 6]
65: Plant response rating, Corn [1, 10]
0: Corn plant response rating ([1]; Postemergence, 62 g ai/ha) | Corn plant response rating ([1]; Postemergence, 125 g ai/ha) | Goosegrass plant response rating ([2]; Postemergence, 62 g ai/ha) | Goosegrass plant response rating ([2]; Postemergence, 125 g ai/ha) | Plant response rating, Goosegrass [2, 11] | Plant response rating, Goosegrass [2, 8] | Plant response rating, Goosegrass [2, 9] | Plant response rating, Soybean [4, 11] | Chickweed plant response rating ([5]; 62 g ai/ha) | Chickweed plant response rating ([5]; 125 g ai/ha)
15: Plant response rating, Corn [1, 8] | Plant response rating, Corn [1, 9] | Plant response rating, Goosegrass [2, 10]
40: Plant response rating, Chickweed ([5]; 250 g ai/ha)
90: Lambsquarters plant response rating ([3]; Postemergence, 125 g ai/ha) | Plant response rating, Soybean [4, 9] | Plant response rating, Soybean [4, 10]
70: Lambsquarters plant response rating ([3]; Postemergence, 62 g ai/ha) | Plant response rating, Soybean [4, 8]
20: Plant response rating, Corn [1, 6] | Plant response rating, Goosegrass [2, 6]
25: Plant response rating, Corn [1, 7] | Plant response rating, Goosegrass [2, 7]
100: Plant response rating, Lambsquarters [3, 11] | Plant response rating, Lambsquarters [3, 8] | Plant response rating, Lambsquarters [3, 9] | Plant response rating, Lambsquarters [3, 10] | Plant response rating, Soybean [4, 7]
45: Plant response rating, Chickweed ([5]; 500 g ai/ha)

CCOC(=O)c1nc(-c2ccc(Cl)cc2)nc(N)c1Br [Compound 37]
15: Plant response rating, Corn [1, 6]
10: Corn plant response rating ([1]; Postemergence, 125 g ai/ha)
20: Soybean plant response rating ([4]; Postemergence, 62 g ai/ha)
85: Soybean plant response rating ([4]; Postemergence, 125 g ai/ha)
100: Plant response rating, Soybean [4, 7]
25: Plant response rating, Corn [1, 7]
95: Lambsquarters plant response rating ([3]; Postemergence, 125 g ai/ha) | Plant response rating, Lambsquarters [3, 6] | Plant response rating, Lambsquarters [3, 7] | Plant response rating, Soybean [4, 6]
0: Corn plant response rating ([1]; Postemergence, 62 g ai/ha) | Goosegrass plant response rating ([2]; Postemergence, 62 g ai/ha) | Goosegrass plant response rating ([2]; Postemergence, 125 g ai/ha) | Plant response rating, Goosegrass [2, 6] | Plant response rating, Goosegrass [2, 7] | Lambsquarters plant response rating ([3]; Postemergence, 62 g ai/ha) | Chickweed plant response rating ([5]; 62 g ai/ha) | Chickweed plant response rating ([5]; 125 g ai/ha) | Plant response rating, Chickweed ([5]; 250 g ai/ha) | Plant response rating, Chickweed ([5]; 500 g ai/ha)

CC(=O)NN=Cc1nc(C2CC2)nc(N)c1Br [Compound 51]
95: Soybean plant response rating ([4]; Postemergence, 125 g ai/ha) | Plant response rating, Soybean [4, 6] | Plant response rating, Soybean [4, 7]
85: Plant response rating, Lambsquarters [3, 6]
0: Corn plant response rating ([1]; Postemergence, 62 g ai/ha) | Corn plant response rating ([1]; Postemergence, 125 g ai/ha) | Plant response rating, Corn [1, 6] | Plant response rating, Corn [1, 7] | Goosegrass plant response rating ([2]; Postemergence, 62 g ai/ha) | Goosegrass plant response rating ([2]; Postemergence, 125 g ai/ha) | Plant response rating, Goosegrass [2, 6] | Plant response rating, Goosegrass [2, 7] | Chickweed plant response rating ([5]; 62 g ai/ha) | Chickweed plant response rating ([5]; 125 g ai/ha) | Plant response rating, Chickweed ([5]; 250 g ai/ha)
60: Lambsquarters plant response rating ([3]; Postemergence, 62 g ai/ha)
75: Lambsquarters plant response rating ([3]; Postemergence, 125 g ai/ha) | Soybean plant response rating ([4]; Postemergence, 62 g ai/ha)
45: Plant response rating, Chickweed ([5]; 500 g ai/ha)
90: Plant response rating, Lambsquarters [3, 7]

CCCCOC(=O)c1nc(C2CC2)nc(N)c1Br [Compound 16]
20: Corn plant response rating ([1]; Postemergence, 125 g ai/ha) | Plant response rating, Corn [1, 8] | Plant response rating, Goosegrass [2, 6] | Plant response rating, Chickweed ([5]; 125 g ai/ha)
0: Plant response rating (scale of 0 to 100), Corn ([1]; Postemergence, 31 g ai/ha) | Corn plant response rating ([1]; Postemergence, 62 g ai/ha) | Plant response rating, Corn [1, 12] | Plant response rating (scale of 0 to 100), Goosegrass ([2]; Postemergence, 31 g ai/ha) | Goosegrass plant response rating ([2]; Postemergence, 62 g ai/ha) | Goosegrass plant response rating ([2]; Postemergence, 125 g ai/ha) | Plant response rating, Goosegrass [2, 12] | Plant response rating, Goosegrass [2, 11] | Plant response rating, Goosegrass [2, 8] | Plant response rating, Goosegrass [2, 9] | Plant response rating (scale of 0 to 100), Chickweed ([5]; 31 g ai/ha) | Chickweed plant response rating ([5]; 62 g ai/ha)
95: Plant response rating (scale of 0 to 100), Lambsquarters ([3]; Postemergence, 31 g ai/ha) | Plant response rating, Lambsquarters [3, 12] | Plant response rating, Lambsquarters [3, 11] | Soybean plant response rating ([4]; Postemergence, 62 g ai/ha)
15: Plant response rating, Corn [1, 11]
85: Plant response rating (scale of 0 to 100), Soybean ([4]; Postemergence, 31 g ai/ha) | Plant response rating, Soybean [4, 11]
55: Plant response rating, Corn [1, 6]
100: Lambsquarters plant response rating ([3]; Postemergence, 62 g ai/ha) | Lambsquarters plant response rating ([3]; Postemergence, 125 g ai/ha) | Plant response rating, Lambsquarters [3, 6] | Plant response rating, Lambsquarters [3, 8] | Plant response rating, Lambsquarters [3, 9] | Soybean plant response rating ([4]; Postemergence, 125 g ai/ha) | Plant response rating, Soybean [4, 6] | Plant response rating, Soybean [4, 8] | Plant response rating, Soybean [4, 9]
75: Plant response rating, Corn [1, 9] | Plant response rating, Soybean [4, 12]
35: Plant response rating, Chickweed ([5]; 250 g ai/ha)

COCc1nc(C2CC2)nc(N)c1Br [Compound 11]
70: Lambsquarters plant response rating ([3]; Postemergence, 62 g ai/ha)
55: Plant response rating, Soybean [4, 8]
60: Plant response rating (scale of 0 to 100), Lambsquarters ([3]; Postemergence, 31 g ai/ha) | Plant response rating (scale of 0 to 100), Soybean ([4]; Postemergence, 31 g ai/ha)
50: Plant response rating (scale of 0 to 100), Lambsquarters ([3]; Postemergence, 16 g ai/ha)
45: Plant response rating (scale of 0 to 100), Soybean ([4]; Postemergence, 16 g ai/ha)
0: Plant response rating (scale of 0 to 100), Corn ([1]; Postemergence, 16 g ai/ha) | Plant response rating (scale of 0 to 100), Corn ([1]; Postemergence, 31 g ai/ha) | Corn plant response rating ([1]; Postemergence, 62 g ai/ha) | Corn plant response rating ([1]; Postemergence, 125 g ai/ha) | Plant response rating, Corn [1, 13] | Plant response rating, Corn [1, 12] | Plant response rating, Corn [1, 11] | Plant response rating, Corn [1, 8] | Plant response rating (scale of 0 to 100), Goosegrass ([2]; Postemergence, 16 g ai/ha) | Plant response rating (scale of 0 to 100), Goosegrass ([2]; Postemergence, 31 g ai/ha) | Goosegrass plant response rating ([2]; Postemergence, 62 g ai/ha) | Goosegrass plant response rating ([2]; Postemergence, 125 g ai/ha) | Plant response rating, Goosegrass [2, 13] | Plant response rating, Goosegrass [2, 12] | Plant response rating, Goosegrass [2, 11] | Plant response rating, Goosegrass [2, 8] | Plant response rating, Lambsquarters [3, 13] | Plant response rating, Lambsquarters [3, 12] | Plant response rating (scale of 0 to 100), Chickweed ([5]; 16 g ai/ha) | Plant response rating (scale of 0 to 100), Chickweed ([5]; 31 g ai/ha) | Chickweed plant response rating ([5]; 62 g ai/ha) | Plant response rating, Chickweed ([5]; 125 g ai/ha)
40: Plant response rating, Lambsquarters [3, 11]
95: Soybean plant response rating ([4]; Postemergence, 125 g ai/ha)
80: Lambsquarters plant response rating ([3]; Postemergence, 125 g ai/ha) | Soybean plant response rating ([4]; Postemergence, 62 g ai/ha)
85: Plant response rating, Lambsquarters [3, 8]
